Converted amounts (≈) assume the structure as drawn.
Key:
Experiment in all cases: MIC, CLSI broth microdilution, Test Example 2
Type in all cases: cell-based
A. baumannii SR01331 = settings: Acinetobacter baumannii, SR01331; PER-1, OXA-23.51 ESBL- & OXA-type carbapenemase producing strain; cation-adjusted Iso-Sensitest broth containing human Apo-transferrin; 5×10^5 cfu/mL; read-out: Minimum Inhibitory Concentration (MIC) A. baumannii SR01331
Description: (§1) Measurement of Minimum Inhibitory Concentration (MIC: μg/mL) was conducted according to CLSI (Clinical and Laboratory Standards Institute) method, and the amount of bacteria for inoculation was 5×10^5 cfu/mL, and cation-adjusted Iso-Sensitest broth containing human Apo-transferrin was used as a test medium, and the experiment was conducted using broth microdilution method.

E. cloacae NCTC13464 = settings: Enterobacter cloacae, NCTC13464; CTX-M group 9 ESBL producing strain; cation-adjusted Iso-Sensitest broth containing human Apo-transferrin; 5×10^5 cfu/mL; read-out: Minimum Inhibitory Concentration (MIC) E. cloacae NCTC 13464
Description: as §1

E. coli ATCCBAA-196 = settings: Escherichia coli, ATCCBAA196; TEM-10 ESBL producing strain; cation-adjusted Iso-Sensitest broth containing human Apo-transferrin; 5×10^5 cfu/mL; read-out: Minimum Inhibitory Concentration (MIC) E. coli ATCC BAA-196
Description: as §1

E. coli ATCCBAA-200 = settings: Escherichia coli, ATCCBAA200; SHV-4 ESBL producing strain; cation-adjusted Iso-Sensitest broth containing human Apo-transferrin; 5×10^5 cfu/mL; read-out: Minimum Inhibitory Concentration (MIC) E. coli ATCC BAA-200
Description: as §1

E. coli SR01337 = settings: Escherichia coli, SR01337; TEM-1 ESBL producing strain; cation-adjusted Iso-Sensitest broth containing human Apo-transferrin; 5×10^5 cfu/mL; read-out: Minimum Inhibitory Concentration (MIC) E. coli SR01337
Description: as §1

K. pneumoniae ATCC700603 = settings: Klebsiella pneumoniae, ATCC700603; SHV18 ESBL producing strain; cation-adjusted Iso-Sensitest broth containing human Apo-transferrin; 5×10^5 cfu/mL; read-out: Minimum Inhibitory Concentration (MIC) K. pneumoniae ATCC 700603
Description: as §1

P. aeruginosa SR01332 = settings: Pseudomonas aeruginosa, SR01332; VIM-11 MBL producing strain (carbapenem resistance strain); cation-adjusted Iso-Sensitest broth containing human Apo-transferrin; 5×10^5 cfu/mL; read-out: Minimum Inhibitory Concentration (MIC) P. aeruginosa SR01332
Description: as §1

P. aeruginosa SR01335 = settings: Pseudomonas aeruginosa, SR01335; VIM-1 like MBL producing strain (carbapenem resistance strain); cation-adjusted Iso-Sensitest broth containing human Apo-transferrin; 5×10^5 cfu/mL; read-out: Minimum Inhibitory Concentration (MIC) P. aeruginosa SR01335
Description: as §1

Compound	MIC (A. baumannii SR01331) [µg/mL]	MIC (E. cloacae NCTC13464) [µg/mL]	MIC (E. coli ATCCBAA-196) [µg/mL]	MIC (E. coli ATCCBAA-200) [µg/mL]	MIC (E. coli SR01337) [µg/mL]	MIC (K. pneumoniae ATCC700603) [µg/mL]	MIC (P. aeruginosa SR01332) [µg/mL]	MIC (P. aeruginosa SR01335) [µg/mL]
Nc1nc(/C(=N/O[C@@H](CC(=O)[O-])C(=O)[O-])C(=O)N[C@@H]2C(=O)N3C(c4nnn[n-]4)=C(C[N+]4(CCNC(=O)c5ccc(O)c(O)c5Cl)CCCCC4)CS[C@H]23)cs1.[Na+].[Na+] [Compound I-67]	0.25	0.063	≤ 0.031	0.063	≤ 0.031	≤ 0.031	2	2
CC(C)(O/N=C(\C(=O)N[C@@H]1C(=O)N2C(c3nnn[n-]3)=C(C[N+]3(C)[C@@H]4CC[C@H]3CC(NC(=O)c3cc(O)c(O)c(F)c3)C4)CS[C@H]12)c1nc(N)sc1Cl)C(=O)[O-].[Na+] (some centres unmarked) [Compound I-33]	0.5	0.25	0.063	0.25	0.063	0.25	2	4
CC(C)(O/N=C(\C(=O)N[C@@H]1C(=O)N2C(c3nnn[n-]3)=C(C[n+]3ccc4cc(O)c(O)cc4c3)CS[C@H]12)c1nsc(N)n1)C(=O)[O-].[Na+] [Compound I-113]	0.125	≤ 0.031	0.125	0.25	≤ 0.031	0.125	0.5	0.25
CC(C)(O/N=C(\C(=O)N[C@@H]1C(=O)N2C(c3nnn[nH]3)=C(C[N+]34CCCC3CN(C(=O)c3cc(O)c(O)c(Cl)c3)CC4)CS[C@H]12)c1nsc(N)n1)C(=O)[O-] (some centres unmarked) [Compound I-122]	0.25 (≈ 0.317 µM)	0.063 (≈ 0.0798 µM)	0.125 (≈ 0.158 µM)	0.25 (≈ 0.317 µM)	≤ 0.031	0.125 (≈ 0.158 µM)	4 (≈ 5.07 µM)	1 (≈ 1.27 µM)
CC(C)(O/N=C(\C(=O)N[C@@H]1C(=O)N2C(c3nnn[n-]3)=C(C[N+]3(CCNC(=O)c4ccc(O)c(O)c4Cl)CCCC3)CS[C@H]12)c1csc(N)n1)C(=O)[O-].[Na+] [Compound I-82]	0.5	0.125	0.125	0.25	≤ 0.031	0.125	4	1
Cc1cc2cc(O)c(O)cc2c[n+]1CC1=C(c2nnn[n-]2)N2C(=O)[C@@H](NC(=O)/C(=N\OC(C)(C)C(=O)[O-])c3csc(N)n3)[C@H]2SC1.[Na+] [Compound I-121]	0.125	0.063	≤ 0.031	≤ 0.031	≤ 0.031	≤ 0.031	1	0.5
CC(C)(O/N=C(\C(=O)N[C@@H]1C(=O)N2C(c3nnn[nH]3)=C(C[N+]3(CCNC(=O)c4ccc(O)c(O)c4F)CCCC3)CS[C@H]12)c1nsc(N)n1)C(=O)[O-] [Compound I-107]	0.5 (≈ 0.657 µM)	0.063 (≈ 0.0828 µM)	0.25 (≈ 0.329 µM)	0.5 (≈ 0.657 µM)	0.063 (≈ 0.0828 µM)	0.125 (≈ 0.164 µM)	2 (≈ 2.63 µM)	2 (≈ 2.63 µM)
CC(C)(O/N=C(\C(=O)N[C@@H]1C(=O)N2C(c3nnn[n-]3)=C(C[n+]3cccc4c3CCCN4C(=O)c3ccc(O)c(O)c3Cl)CS[C@H]12)c1nc(N)sc1Cl)C(=O)[O-].[Na+] [Compound I-28]	0.5	0.5	0.125	0.5	≤ 0.031	0.125	1	1

The remaining compounds from weak to strong by MIC (A. baumannii SR01331), led by results:

MIC (A. baumannii SR01331) [µg/mL]	MIC (E. cloacae NCTC13464) [µg/mL]	MIC (E. coli ATCCBAA-196) [µg/mL]	MIC (E. coli ATCCBAA-200) [µg/mL]	MIC (E. coli SR01337) [µg/mL]	MIC (K. pneumoniae ATCC700603) [µg/mL]	MIC (P. aeruginosa SR01332) [µg/mL]	MIC (P. aeruginosa SR01335) [µg/mL]	Compound
1 (≈ 1.27 µM)	0.125 (≈ 0.159 µM)	0.25 (≈ 0.317 µM)	0.5 (≈ 0.634 µM)	≤ 0.031	0.25 (≈ 0.317 µM)	8 (≈ 10.1 µM)	2 (≈ 2.54 µM)	CC(C)(O/N=C(\C(=O)N[C@@H]1C(=O)N2C(c3nnn[nH]3)=C(C[N@+]34CCC[C@H]3CN(C(=O)c3ccc(O)c(O)c3Cl)CC4)CS[C@H]12)c1csc(N)n1)C(=O)[O-] [Compound I-98]
1	0.25	0.063	0.25	0.063	0.25	2	2	Nc1nc(/C(=N/O[C@@H](CC(=O)[O-])C(=O)[O-])C(=O)N[C@@H]2C(=O)N3C(c4nnn[n-]4)=C(C[N+]45CCC[C@H]4CN(C(=O)c4cc(O)c(O)c(F)c4)CC5)CS[C@H]23)cs1.[Na+].[Na+] (some centres unmarked) [Compound I-63]
0.5 (≈ 0.633 µM)	0.125 (≈ 0.158 µM)	≤ 0.031	0.063 (≈ 0.0798 µM)	≤ 0.031	0.063 (≈ 0.0798 µM)	4 (≈ 5.06 µM)	2 (≈ 2.53 µM)	Nc1nc(/C(=N/O[C@@H](CC(=O)O)C(=O)[O-])C(=O)N[C@@H]2C(=O)N3C(c4nnn[nH]4)=C(C[N+]4(CCNC(=O)c5cc(O)c(O)c(F)c5)CCCC4)CS[C@H]23)cs1 [Compound I-99]
0.5	0.063	0.125	0.125	≤ 0.031	0.125	2	2	CC(C)(O/N=C(\C(=O)N[C@@H]1C(=O)N2C(c3nnn[n-]3)=C(C[N+]3(CCNC(=O)c4ccc(O)c(O)c4Cl)CCCCC3)CS[C@H]12)c1csc(N)n1)C(=O)[O-].[Na+] [Compound I-69]
0.5	1	1	1	≤ 0.031	0.5	2	1	CC(C)(O/N=C(\C(=O)N[C@@H]1C(=O)N2C(c3nnn[nH]3)=C(C[n+]3cccc4c3CCCN4C(=O)c3ccc(O)c(O)c3Cl)CS[C@H]12)c1nsc(N)n1)C(=O)O.[Na+] [Compound I-115]
0.25 (≈ 0.303 µM)	0.125 (≈ 0.152 µM)	≤ 0.031	0.125 (≈ 0.152 µM)	≤ 0.031	0.5 (≈ 0.607 µM)	2 (≈ 2.43 µM)	1 (≈ 1.21 µM)	Nc1nc(/C(=N/O[C@@H](CC(=O)O)C(=O)[O-])C(=O)N[C@@H]2C(=O)N3C(c4nnn[nH]4)=C(C[N+]4(CCNC(=O)c5ccc(O)c(O)c5F)CCCC4)CS[C@H]23)c(Cl)s1 [Compound I-103]
0.25	0.063	≤ 0.031	0.063	≤ 0.031	≤ 0.031	4	1	CC(C)(O/N=C(\C(=O)N[C@@H]1C(=O)N2C(c3nnn[n-]3)=C(C[N+]3(CCNC(=O)c4ccc(O)c(O)c4Cl)CCCCC3)CS[C@H]12)c1nc(N)sc1Cl)C(=O)[O-].[Na+] [Compound I-32]
0.25	≤ 0.031	≤ 0.031	0.063	≤ 0.031	0.063	0.25	0.5	CC(C)(O/N=C(\C(=O)N[C@@H]1C(=O)N2C(c3nnn[n-]3)=C(C[n+]3ccc4cc(O)c(O)cc4c3)CS[C@H]12)c1nc(N)sc1Cl)C(=O)[O-].[Na+] [Compound I-37]
